What was measured:
[1] = Inhibition of FLT3 (unknown origin) expressed in mouse BaF3 cells assessed as inhibition of FLT3 ligand-FLT3 dependent cell proliferation incubated for 3 days by ATPlite 1step Luminescence Assay reagent based assay
[2] = Inhibition of FLT3-ITD (unknown origin) expressed in mouse BaF3 cells assessed as inhibition of FLT3-ITD dependent cell proliferation incubated for 3 days by ATPlite 1step Luminescence Assay reagent based assay

IC50 [1]: > 10 µM
IC50 [2]: > 10 µM
Compound: COc1ncc(F)cc1CNc1ccc(Cc2c[nH]c3ncc(C)cc23)c(F)n1 [US9096593, P-2049]
